Measured values reported in PubChem BioAssay AID1902 (Broad Institute, 2009).
The source made the active and inactive calls.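 Rule for the calls: active = EC50 no more than a set limit of log units above the highest dose; inactive = the rest.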

Target: S. pyogenes SKKanGAS, kanamycin survival, BacTiterGlo, 6 h
Test: S. pyogenes SKKanGAS kanamycin growth inhibitors – SKKanGAS strain, luminescence, dose confirmation, streptokinase promoter inhibitor project, dose response (AID 1902);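 note: lower survival reflects blocked streptokinase promoter driving kanamycin resistance gene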

Structure (SMILES)	EC50
N=C1SCC(=O)N1c1ncc(Cc2cccc(Cl)c2)s1	0.145 µM
O=C(NNC1=Nc2cccc3cccc1c23)c1ccc(Br)cc1	0.22 µM
c1ccc(Nc2nc3ccccc3[nH]2)nc1	1.46 µM
O=C(CSc1nnc(CNC(=O)c2ccccc2)o1)NCCc1ccccc1	> 15 µM (inactive)
C[C@@]12CCC=C[C@H]1[C@H](c1ccc3ccccc3c1Br)N(Cc1ccccc1)C2=O	3.63 µM
CC(Oc1ccc(Cl)cc1Cl)C(=O)Nc1ccc(S(=O)(=O)Nc2cnc3ccccc3n2)cc1 (configuration not stated)	3.88 µM
Cc1cccc(Cn2nc(C(C)(C)C)cc2C(=O)Nc2ccc(F)cc2)c1	3.95 µM
Cc1ccc(-c2nn(CCC(=O)O)cc2/C=C\C(=O)c2ccc(Br)cc2)cc1	6.54 µM
O=S(=O)(Nc1ccc(-c2csc(-c3ccccc3)n2)cc1)c1ccc(F)cc1	1.92 µM
O=[N+]([O-])c1c(Nc2cccc(O)c2)cc(Cl)c2nonc12	6.5 µM
O=C(Nc1scc(-c2ccc(Br)cc2)c1C(=O)O)c1ccccc1F	1.86 µM
CC12CCC(C/C1=N\N=C1\NC(=O)/C(=C\c3ccc(Cl)cc3)S1)C2(C)C (configuration not stated)	1.13 µM
CC(Oc1ccc2ccccc2c1)C(=O)NNC(=S)NC(=O)c1ccco1 (configuration not stated)	0.149 µM
Cc1cc(C)c(-c2noc(C(=O)OC(C)(C)C)c2C(=O)OC(C)(C)C)c(C)c1	3.58 µM
O=C(CNc1ccc2ccccc2c1)N/N=C/c1ccc([N+](=O)[O-])o1	14.3 µM
CCCCCCc1cc2cc(C(=O)OCC)c(=O)oc2cc1O	5.46 µM
CC(C)c1ccc(NC(=O)c2cc(S(=O)(=O)NCC3COc4ccccc4O3)ccc2F)cc1 (configuration not stated)	5.37 µM
Cc1ccc(C)c(NC(=O)CSc2nc3nc(-c4cccs4)cc(C(F)(F)F)c3c(=O)[nH]2)c1	3.18 µM
Nc1nc(Nc2ccccc2)nc(NC2CCCCC2)c1[N+](=O)[O-]	5.57 µM
Cc1ccc2nc(N3C(=O)CNC3=S)sc2c1	4.32 µM
Cc1ccc(NC(=O)c2nc[nH]c2C(=O)N[C@@H](C)c2ccccc2)cc1	1.13 µM
O=C(N/N=C/c1cc(Br)cc(Br)c1O)c1cccc(S(=O)(=O)N2CCOCC2)c1	1.17 µM
O=C(Nc1nnc(-c2ccc(Br)cc2)o1)c1cccc(N2C(=O)CCC2=O)c1	1.35 µM
O=C(Oc1ccc(Cl)c2cccnc12)c1ccco1	3.69 µM
Cc1cccc(OCC(=O)Nc2ccc(C(=O)Nc3ccccc3C(=O)O)cc2)c1C	2.41 µM
O=C1C(Nc2ccc(O)cc2)=C/C(=N/S(=O)(=O)c2cccs2)c2ccccc21	1.97 µM

Structure (SMILES)	EC50
O=C(N/N=C/c1cc(Br)ccc1O)c1ccncc1	1.15 µM
Cc1ccc(-c2cc([C@H]3[C@@H]4C=CCC[C@@]4(C)C(=O)N3Cc3ccccc3)ccc2F)cc1	3.44 µM
CS(=O)(=O)c1ccc2nc(NC(=O)c3ccc(NS(=O)(=O)c4ccc(F)c(F)c4)cc3)sc2c1	0.622 µM
CCN=C1S/C(=C\c2ccc(-c3cccc(C(=O)O)c3)o2)C(=O)N1CC	3.4 µM
O=C(Nc1nc2ccccc2[nH]1)c1cccc(Cl)c1	10.4 µM
Cc1cc(N2CCC(C)CC2)nc(-n2nc(C)cc2C)n1	7.73 µM
Cc1cc(C)c(C)c(S(=O)(=O)N2CCC(C(=O)NNC(=O)c3ccccc3O)CC2)c1C	11.8 µM
O=C(Nc1ccc(Cl)c(Cl)c1)Nc1nccs1	8.79 µM
O=C(Nc1cccc(C(F)(F)F)c1)Oc1ccc(Cl)c2cccnc12	1.94 µM
O=C1C=C(Nc2ccccc2)c2ccccc2C1=O	2.44 µM
COc1cc2ccccc2cc1C(=O)Nc1ccc(NC(=O)c2cccs2)cc1	6.02 µM
CCCCC[n+]1ccn(C2=C([O-])c3ccccc3C(=O)/C2=N\S(=O)(=O)c2ccccc2)c1	2.58 µM
Cc1cc(C)c2nc(N3C(=O)C(O)=C(C(=O)c4ccco4)C3c3ccco3)sc2c1 (configuration not stated)	2.12 µM
S=C1NC[C@H](CC2CCCCC2)N1CC1CCCCC1	7.69 µM
Cc1cc(C)c2nc(NNC(=O)c3ccc(S(=O)(=O)N4CCCCC4)cc3)sc2c1	1.86 µM
NS(=O)(=O)c1ccc(N2N=C(c3ccccc3)CC2c2ccc(F)cc2)cc1 (configuration not stated)	5.28 µM
Cc1[nH][nH]c(=O)c1C(c1c(C)[nH][nH]c1=O)c1cn(Cc2ccc(Cl)c(Cl)c2)c2ccccc12	3.07 µM
COc1cc([N+](=O)[O-])cc(/C=N/NC(=O)c2cc(-c3ccccc3)nc3ccccc23)c1O	3.2 µM
CCCn1c(NC(=O)c2ccccc2Br)nc2ccccc21	5.66 µM
O=C(NCC1(N2CCCCC2)CCCCC1)c1cccc(NS(=O)(=O)c2ccccc2)c1	> 15 µM (inactive)
CCCCc1nc(NCc2ccccc2)c(C#N)c2c1CCCC2	8.22 µM
Cn1c(O)c(N=NC(=O)c2cc(-c3cccs3)nc3ccccc23)c2ccccc21	2.57 µM
CC(C)CC(=O)NC(=S)NNC(=O)c1ccc(NC(=O)C2CCCCC2)cc1	0.546 µM
COc1ccccc1Oc1cn[nH]c1-c1ccc(OCC(=O)NN)cc1O	> 15 µM (inactive)
O=C(Cc1cccs1)Nc1cccc(-c2nc3cc4ccccc4cc3[nH]2)c1	4.25 µM
COc1cccc(/C=C(/C(=O)OCC(=O)NC2CCCC(C)C2C)c2ccccc2)c1 (configuration not stated)	8.45 µM

Structure (SMILES)	EC50
CCCN(CCC)S(=O)(=O)c1ccc(C(=O)Nc2nnc(COC)o2)cc1	5 µM
O=C(O)c1ccc(N/N=C/c2ccc(OC(=O)c3ccccc3Cl)cc2)cc1	5.02 µM
COc1c(N2CCN(C(=S)Nc3ccccc3F)C(C)C2)c(F)cc2c(=O)c(C(=O)O)cn(C3CC3)c12 (configuration not stated)	2.67 µM
O=S(=O)(Nc1cccc2cccnc12)c1ccccc1	4.39 µM
Cc1ccccc1Nc1nc(N)nc(CN(C)Cc2ccccc2Cl)n1	1.76 µM
Cn1c(SCC(=O)NC2(C#N)CCCCC2)nnc1-c1cccnc1	> 15 µM (inactive)
CC(C)(C)c1ccc(-c2noc(-c3ccc4c(c3)CCO4)n2)cc1	7.95 µM
CCCOc1cccc(-c2cc(C(=O)N/N=C/c3ccccn3)c3ccccc3n2)c1	1.87 µM
N#CC1=C(c2ccccc2)/C(=C/c2ccccc2)OC1=O	9.97 µM
O=C1NC(=Nc2ccc(Cl)cc2)SC1Cc1cccc(Cl)c1Cl (configuration not stated)	6.95 µM
COc1ccc(S(=O)(=O)N/N=C(/C)c2ccncc2)cc1	> 15 µM (inactive)
Cc1ccc(NC(=S)NC2CCSc3ccccc32)cc1C (configuration not stated)	4.63 µM
COc1ccc(-n2nc(C(=O)c3cccs3)cc(-c3nc4ccccc4[nH]3)c2=N)cc1	1.2 µM
O=C(NNC1=Nc2ccccc2SC1)c1ccc(F)cc1	6.87 µM
COc1cccc(NC(=O)Nc2nc(SC(C)(C)C)ns2)c1	8.16 µM
Cc1nn(CC(=O)NC2C(=O)N3C(C(=O)O)=C(CSc4nnnn4C)CSC23)cc1Br (configuration not stated)	< 0.06 µM
Cc1cc(NCc2ccccn2)n2nc(C)c(-c3ccc(Cl)cc3)c2n1	4.36 µM
Cc1ccsc1C(=O)OCC(=O)c1cc2ccccc2o1	> 15 µM (inactive)
COc1cc(/C=N/Nc2nc(Nc3ccc(C)cc3)nc(-n3nc(C)cc3C)n2)cc(OC)c1OC	0.171 µM
Oc1c(CN2CCN(c3ccccc3)CC2)cc(Br)c2cccnc12	1.67 µM
COc1cc(F)ccc1CN1CCC(n2nccc2NC(=O)C2CCOC2)CC1 (configuration not stated)	> 15 µM (inactive)
Cc1ccccc1-c1cc2nc(-c3ccc([N+](=O)[O-])cc3)cc(=O)n2[nH]1	11.9 µM
CC(C)(C)c1cc[n+](C2=C([O-])c3ccccc3C(=O)/C2=N\S(=O)(=O)c2ccccc2)cc1	3.2 µM
CC1CC(C)CN(Cc2nc(N)nc(Nc3ccc4ccccc4c3)n2)C1 (configuration not stated)	1.41 µM
O=C(CSc1nnc(NC(=O)c2ccccc2)s1)NCC1CCCO1 (configuration not stated)	> 15 µM (inactive)
